Experimental data as given in patent US20230075822A1, “USE OF CASTALAGIN OR ANALOGS THEREOF FOR ANTI-CANCER EFFICACY AND TO INCREASE THE RESPONSE TO IMMUNE CHECKPOINT INHIBITORS” (THE ROYAL INSTITUTION FOR THE ADVANCEMENT OF …, priority 2020, published 2023).

Tests used:
MCA-205 sarcoma = assay: MCA-205 tumor model in germ-free conditions; format: in vivo, C57BL/6 mice; settings: castalagin 0.85 mg/kg per mouse
Procedure: FIG. 9A is a graph showing the effects of castalagin administration at the standard concentration (0.85 mg/kg per mouse) in germ-free conditions on tumor size in the murine MCA-205 tumor model.
Murine studies. All animal studies were approved by the Institutional Animal Care Committee (CIPA) and carried out in compliance with the Canadian Council on Animal Care guidelines. Murine experiments were conducted using seven-week-old female C57BL/6 mice, obtained from Charles River, Canada. Germ-free female C57BL/6 mice were purchased from the International Microbiome Centre Germ-Free Facility (University of Calgary, Canada) and maintained at the CR-CHUM Germ-Free Facility.
Subcutaneous model of MCA-205 sarcoma and E0771 breast cancer. Syngeneic C57BL/6 mice were implanted with 0.8×10^6 MCA-205 or 0.5×10^6 E0771 subcutaneously. When tumors reached 20 to 35 mm^2 in size, mice were treated four times (or two times for flow cytometry analysis, see section below) intraperitoneally (i.p.) every three day with anti-PD-1 monoclonal antibody (mAb) (250 μg/mouse; clone RMP1-14, BioXcell) or isotype control (clone 2A3, BioXcell). […] In the control group mice received daily oral gavage with water (100 μL) Tumor area was routinely monitored every three days by means of a caliper. […]

Ruminococcaceae = assay: qRT-PCR with Ruminococcaceae-specific primers on mouse feces; format: in vivo, mice; settings: 6 days of oral gavage, vs water
Procedure: FIG. 9J is a graph showing the effect of castalagin treatment (0 mg/kg, 1/4×, 0.21 mg/kg, 1×, 0.85 mg/kg, and 3×, 2.55 mg/kg) on the amount of Ruminococcaceae in the feces. Real-time PCR was performed on DNA extracted from mouse stools after 6 days of oral gavage with water or castalagin at 0.21 mg/kg, 0.85 mg/kg and 2.55 mg/kg using specific primers for Ruminococcaceae detection in MCA-205-bearing, SPF-reared mice (n=5). *p<0.05, **p<0.01.
FIG. 13 is a graph depicting the results of qPCR assays performed on DNA extracted from mouse stools after 6 days of oral gavage with water or castalagin at 0.85 mg/kg using specific primers for Ruminococcaceae detection in MCA-205—bearing, SPF-reared mice (n=10). *p<0.05,
Genomic DNA extraction from mouse feces. Total genomic DNA from fecal pellets was extracted using ZymoBIOMICS DNA Miniprep Kit (Zymo Research Corporation) and immediately stored at -80° C. This protocol involves a bead beating step to ensure full recovery of bacterial DNA. DNA concentration and quality were measured using the Nanodrop ND-1000 (ThermoFisher).
Quantitative real-time PCR (qRT-PCR). Quantitative real-time PCR was performed to evaluate the relative levels of the total bacterial DNA and the V6 region of the 16S rRNA gene was amplified using the primer set 891F (5′-[…]-3′, SEQ ID NO:1) and 1033R (5′-TGCGGGACTTAACCCAACA-3′, SEQ ID NO:2) (Anhê et al. Diabetologia. 2018 April; 61(4):919-931) and specifically to evaluate the relative levels of the Ruminococcaceae DNA using the specific primers F (5′-[…]-3′, SEQ ID NO:3) and R (5′-[…]-3′, SEQ ID NO:4) (Garcia-Mazcorro JF et al FEMS Microbiol Ecol 2012; 80(3):624-36). DNA (400ng/well) extracted was combined with 500 nM of the above described primer mix and 1× qPCRBIO SyGreen blue Mix Hi-ROX (PCRBIOSystems). The qPCR reaction was performed on the Applied Biosystems StepOnePlus Real-Time PCR System (ThermoFisher Scientific) at 95° C. for 3min to denature DNA, with amplification proceeding for 40 cycles at 95° C. for 5s, 60° C. for 30 s, and completed with a melt curve stage. Raw threshold cycle (Ct) values were compared to a bacterial standard curve produced with Escherichia coli DNA for the 16s analysis and with Ruminoccocus bicirculans for the Rumniccocaceae analysis for approximation of bacterial load.

[1] = test system: CD8^+/Foxp3^+CD4^+ T cells; assay: Immunofluorescence staining (CD4, CD8, Foxp3) of MCA-205 tumors; format: in vivo, C57BL/6 mice; settings: castalagin/IsoPD-1 relative to Water/IsoPD-1
Text: FIG. 10B Representative images for the CD4, CD8 and Foxp3 immunofluorescence staining of tumors in both water/ISoPD-1 and castalagin/IsoPD-1 groups. FIG. 10C Box plot for the ratio CD8^+/Foxp3^+CD4^+ in tumor in (n=8/group) obtained with immunofluorescence staining. *p<0.05. Immunofluorescence staining. Murine tumors preserved in optimal cutting temperature (OCT) compound were cut (5 μm-thick sections) and adhered to microscope slides and stored at −80C°. Upon the start of the experiment, slides were air dried and washed with cold acetone. To prevent non-specific binding to biotin, the Endogenous Avidin Biotin Blocking kit (ThermoFisher) was used. Additionally, tissues were incubated with 10% donkey serum in order to reduce background staining. Primary antibodies used are anti-CD4, anti-CD8, anti-Foxp3. Donkey anti-goat and donkey anti-rat conjugated to AF-488 were used as secondary antibodies and slides were incubated with Cy3-Streptavidin to detect biotinylated antibodies. Nuclei were visualized by counterstaining with DAPI (ThermoFisher). Images were generated using the whole slide scanner Olympus BX61VS (20× 0.75NA objective with a resolution of […]). The images were analysed using Visiomorph software (Visiopharm).

O=C1OC[C@H]2OC(=O)c3cc(O)c(O)c(O)c3-c3c(O)c(O)c(O)c4c3C(=O)O[C@H]([C@H]3OC(=O)c5c-4c(O)c(O)c(O)c5[C@@H]3O)[C@@H]2OC(=O)c2cc(O)c(O)c(O)c2-c2c1cc(O)c(O)c2O [castalagin, Castalagin]
tumor size (MCA-205 sarcoma): abrogated castalagin antitumor effect | Ruminococcaceae abundance (qRT-PCR) (Ruminococcaceae; 1/4 concentration dose (0.21 mg/kg)): not increase | Ruminococcaceae abundance (qRT-PCR), duplicated experiment (Ruminococcaceae; castalagin 0.85 mg/kg, n=10): increase of Ruminococcaceae | Ruminococcaceae abundance (qRT-PCR) (Ruminococcaceae; standard castalagin dose (0.85 mg/kg)): significantly increased | Ruminococcaceae abundance (qRT-PCR) (Ruminococcaceae; three-fold standard castalagin dose (2.55 mg/kg)): significantly increased | ratio CD8^+/Foxp3^+ CD4^+ in tumor (immunofluorescence) [1]: increase of the ratio CD8^+/Foxp3^+ CD4^+
